The test system of experiment [1] is Klebsiella pneumoniae (K. pneumoniae) 35657. Nature of the experiment: Antibacterial activity, MIC (Table 4). In kind it is cell-based. The conditions noted are these: K. pneumoniae 35657, read-out: MIC, 35657. An excerpt:
(§1) The antibacterial activity from a microbroth dilution method may be presented as the minimum inhibitory concentration (MIC in μg/mL). The MIC value is the lowest concentration of drug which prevents macroscopically visible growth under test conditions.
(§2) Antibacterial activity of test compounds against the Gram-negative Acinetobacter baumannii (A. baumannii) BAA747 and Klebsiella pneumoniae (K. pneumoniae) 35657 bacterium and the resistant A. baumannii MXX2240 and K. pneumoniae MXX1232 strains are shown in Table 4. The MMX strains are multi-drug resistant clinical isolates.

The test system of experiment [2] is Acinetobacter baumannii (A. baumannii) BAA747. Nature of the experiment: Antibacterial activity, MIC (Table 4). The class given is cell-based. The following applies: A. baumannii BAA747, read-out: MIC, BAA747.
Description: as §1, §2

The test system of experiment [3] is Pseudomonas aeruginosa (P. aeruginosa) 27853. Nature of the experiment: Antibacterial activity, MIC (Table 5). The class given is cell-based. The conditions noted are these: P. aeruginosa 27853, read-out: MIC, 27853.
Description: as §1
Antibacterial activity of test compounds against the Gram-negative bacterium Pseudomonas aeruginosa (P. aeruginosa) 27853 is shown in Table 5.

A further experiment relates to E. coli 25922. Nature of the experiment: Antibacterial activity, microbroth dilution MIC (Table 1). In kind it is cell-based, Escherichia coli. The conditions noted are these: Escherichia coli; microbroth dilution; control Gram-negative E. coli 25922 strain; read-out: MIC, 25922. The procedure, abridged: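 Using broth microdilution, MIC endpoints (μg/mL) mark where visible growth no longer appears; the panel spans sensitive and control Gram-negative strains plus a Gram-positive strain.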
A general note: In broth dilution the organism is exposed to a series of concentrations in liquid medium.

Experiment [4] concerns Escherichia coli (E. coli) BAS849. The experiment is described as above. The following applies: microbroth dilution, super sensitive Gram-negative E. coli BAS849, read-out: MIC, BAS849. The class given is cell-based. The procedure, abridged: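 Broth microdilution against S. aureus 29213, E. coli 25922 and hypersensitive E. coli BAS849. MIC in μg/mL is the lowest drug concentration preventing macroscopically visible growth under test conditions.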

Experiment [5] has as its system Staphylococcus aureus (S. aureus) 29213. The description is as above. The class given is cell-based. The following applies: microbroth dilution, Gram-positive S. aureus 29213, read-out: MIC, 29213. Summed up:
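Lowest concentration stopping macroscopically visible growth under test conditions, by broth microdilution, defines the MIC (μg/mL).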

Another experiment relates to E. coli LZ3111. Nature of the experiment: Antibacterial activity, MIC, quinolone resistant strain (Table 2). In kind it is cell-based. The conditions noted are these: Escherichia coli, LZ3111, read-out: MIC LZ3111. The procedure, abridged:
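Microbroth dilution method; MIC (μg/mL) is the lowest drug concentration preventing macroscopically visible growth under test conditions.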

Another experiment deals with K. pneumoniae MXX1232. Nature of the experiment: Antibacterial activity, MIC, resistant strain (Table 4). In kind it is cell-based. The following applies: Klebsiella pneumoniae, MXX1232; resistant K. pneumoniae MMX1232, multi-drug resistant clinical isolate; read-out: MIC, MMX1232.
Description: as §1, §2

The subject of a further experiment is A. baumannii MXX2240. The experiment is described as above. In kind it is cell-based. The following applies: Acinetobacter baumannii, MXX2240; resistant A. baumannii MMX2240, multi-drug resistant clinical isolate; read-out: MIC, MMX2240.
Description: as §1, §2

In brackets after ≈: the same amount, converted by molar mass.

In patent publication US9409905B2, “Antibacterial compounds and methods for use” (PTC THERAPEUTICS, INC., priority 2011, dated 2016) one finds MIC data, which are given here for seven compounds.

What is called MIC is the smallest concentration in the dilution series that meets the test's criterion for growth inhibition.

Consider `CCc1cc(C(=O)O)c(=O)[nH]c1-c1ccc2c(c1)cc(CCN1CCOCC1)n2C` [Cpd 162, 5-ethyl-6-(1-methyl-2-(2-morpholinoethyl)-1H-indol-5-yl)-2-oxo-1,2-dihydropyridine-3-carboxylic acid], for which the MIC is 1 to 3.5 µg/mL (≈ 2.44 to 8.55 µM) in [1]; 3.5 to 12.5 µg/mL (≈ 8.55 to 30.5 µM) in experiment [2]; 12.5 to 150 µg/mL (≈ 30.5 to 366 µM) in [3]; 1 to 3.5 µg/mL (≈ 2.44 to 8.55 µM) in the experiment on E. coli 25922; less than 1 µg/mL in experiment [4]; 12.5 to 150 µg/mL (≈ 30.5 to 366 µM) in experiment [5]. Moreover, the minimum inhibitory concentration (MIC) in the experiment with E. coli LZ3111 lay in the range of 12.5 to 150 µg/mL (≈ 30.5 to 366 µM).
Turning to `CCc1c(-c2ccc3c(c2)cc(CN2C[C@@H]4[C@H](C2)[C@H]4NC)n3C)[nH]c(=O)c(C(=O)O)c1O` [Cpd 208, 5-ethyl-4-hydroxy-6-(1-methyl-2-(((1R,5S,6s)-6-(methylamino)-3-azabicyclo[3.1.0]hexan-3-yl)methyl)-1H-indol-5-yl)-2-oxo-1,2-dihydropyridine-3-carboxylic acid], the MIC was 12.5 to 150 µg/mL (≈ 28.6 to 344 µM) in the experiment with K. pneumoniae MXX1232; 12.5 to 150 µg/mL (≈ 28.6 to 344 µM) in the experiment with A. baumannii MXX2240; less than 1 µg/mL in the experiment on E. coli 25922; less than 1 µg/mL in [4]; 3.5 to 12.5 µg/mL (≈ 8.02 to 28.6 µM) in experiment [5]; 3.5 to 12.5 µg/mL (≈ 8.02 to 28.6 µM) in the experiment with E. coli LZ3111.
On to `CCc1c(-c2ccc3c(c2)cc(CNCc2ccccc2)n3C)[nH]c(=O)c(C(=O)O)c1O.Cl` [Cpd 214, 6-(2-((benzylamino)methyl)-1-methyl-1H-indol-5-yl)-5-ethyl-4-hydroxy-2-oxo-1,2-dihydropyridine-3-carboxylic acid hydrochloride], for which the MIC in experiment [1] is 12.5 to 150 µg/mL; in the experiment on K. pneumoniae MXX1232 it was 12.5 to 150 µg/mL; in the experiment on E. coli 25922 it was less than 1 µg/mL; in [4], less than 1 µg/mL; in [5], 1 to 3.5 µg/mL; in the experiment with E. coli LZ3111 it was 12.5 to 150 µg/mL.
As to `CCc1c(-c2ccc3c(c2)cc(CNCc2cccnc2)n3C)[nH]c(=O)c(C(=O)O)c1O.Cl` [Cpd 220, 5-ethyl-4-hydroxy-6-(1-methyl-2-((pyridin-3-ylmethylamino)methyl)-1H-indol-5-yl)-2-oxo-1,2-dihydropyridine-3-carboxylic acid hydrochloride], the minimal inhibitory concentration (MIC) in [1] is 3.5 to 12.5 µg/mL; with K. pneumoniae MXX1232, 12.5 to 150 µg/mL; in the experiment with E. coli 25922, less than 1 µg/mL; in [4] it was less than 1 µg/mL; in experiment [5] it was 1 to 3.5 µg/mL; in the experiment with E. coli LZ3111, 12.5 to 150 µg/mL.
Take `CCc1c(-c2ccc3c(c2)cc(CNCc2ccncc2)n3C)[nH]c(=O)c(C(=O)O)c1O.Cl` [Cpd 221, 5-ethyl-4-hydroxy-6-(1-methyl-2-((pyridin-4-ylmethylamino)methyl)-1H-indol-5-yl)-2-oxo-1,2-dihydropyridine-3-carboxylic acid hydrochloride]: the minimal inhibitory concentration (MIC) is 1 to 3.5 µg/mL in experiment [1]; 12.5 to 150 µg/mL in the experiment on K. pneumoniae MXX1232; 1 to 3.5 µg/mL in the experiment on E. coli 25922; less than 1 µg/mL in [4]; 1 to 3.5 µg/mL in experiment [5]; 12.5 to 150 µg/mL with E. coli LZ3111.
As for `CCc1c(-c2ccc3c(c2)cc(CN2CCC(O)CC2)n3C)[nH]c(=O)c(C(=O)O)c1O` [Cpd 254, 5-ethyl-4-hydroxy-6-(2-((4-hydroxypiperidin-1-yl)methyl)-1-methyl-1H-indol-5-yl)-2-oxo-1,2-dihydropyridine-3-carboxylic acid], the MIC was 3.5 to 12.5 µg/mL (≈ 8.23 to 29.4 µM) in experiment [1]; 12.5 to 150 µg/mL (≈ 29.4 to 353 µM) in the experiment with K. pneumoniae MXX1232; 1 to 3.5 µg/mL (≈ 2.35 to 8.23 µM) in the experiment with E. coli 25922; less than 1 µg/mL in experiment [4]; 3.5 to 12.5 µg/mL (≈ 8.23 to 29.4 µM) in experiment [5]; 12.5 to 150 µg/mL (≈ 29.4 to 353 µM) in the experiment with E. coli LZ3111.
Turning to `CCc1c(-c2ccc3c(c2)cc(C2CCNC2)n3C)[nH]c(=O)c(C(=O)O)c1O` (centres unmarked) [Cpd 306, 5-ethyl-4-hydroxy-6-(1-methyl-2-(pyrrolidin-3-yl)-1H-indol-5-yl)-2-oxo-1,2-dihydropyridine-3-carboxylic acid], the MIC was in the range of 3.5 to 12.5 µg/mL (≈ 9.18 to 32.8 µM) in experiment [1]; 12.5 to 150 µg/mL (≈ 32.8 to 393 µM) in [2]; 12.5 to 150 µg/mL (≈ 32.8 to 393 µM) in experiment [3]; 3.5 to 12.5 µg/mL (≈ 9.18 to 32.8 µM) with E. coli 25922; 1 to 3.5 µg/mL (≈ 2.62 to 9.18 µM) in experiment [4]; 12.5 to 150 µg/mL (≈ 32.8 to 393 µM) in [5]. Besides, the minimum inhibitory concentration (MIC) with E. coli LZ3111 was 3.5 to 12.5 µg/mL (≈ 9.18 to 32.8 µM).
